Assays:
Type in all cases: in vivo
[1] = Iron clearing efficiency in iron-overloaded Cebus apella monkey model; conditions: primates, given either p.o. or s.c.
Description: Iron Chelators in a Cebus apella Monkey Model Studies were performed in the iron-overloaded monkey model with the compounds shown below: The protocol used can be found in Bergeron, R. J. et al., “Methoxylation of Desazadesferrithiocin Analogues: Enhanced Iron Clearing Efficiency,” J. Med. Chem. 46:1470-1477 (2003), the contents of which are incorporated herein by reference. Briefly, the monkeys were iron overloaded with iron dextran administered intravenously to result in an iron loading of about 500 mg per kg of body weight. At least 20 half-lives, 60 days, elapsed before the animals were used in experiments evaluating iron chelators. Fecal and urine samples were collected at 24 hour intervals beginning 4 days prior to the administration of an iron chelator and continued for 5 days after the chelator was administered. Iron concentrations in stool and urine were determined by flame atomic absorption spectroscometry. Iron chelator efficiency was calculated by dividing the net iron clearance [total iron excretion (stool plus urine) minus background] by the theoretical iron clearance and multiplying by 100. The theoretical clearance of the iron chelator was generated on the basis of a 2:1 ligand/iron complex.

[2] = Iron clearing efficiency in non-iron overloaded, bile duct cannulated rat model; conditions: for Efficiency (%) (iron clearing efficiency): 300 μmol/kg, 24 hour iron excretion, 2:1 ligand-iron complex
Description: Iron Clearing Efficiency of Iron Chelators in a Non-Iron Overloaded, Bile Duct Cannulated Rat Model
Studies were performed in the non-iron overloaded, bile duct cannulated rodent model with the compounds shown below.
Briefly, male Sprague-Dawley rats averaging 450 g were housed in Nalgene plastic metabolic cages during the experimental period and given free access to water. The animals were anesthetized using sodium pentobarbital (55 mg/kg) administered intraperitoneally. The bile duct was cannulated using 22-gauge polyethylene tubing. The cannula was inserted into the duct about 1 cm from the duodenum and tied snugly in place. After threading through the shoulder, the cannula was passed from the rat to the swivel inside a metal torque-transmitting tether, which was attached to a rodent jacket around the animal's chest. The cannula was directed from the rat to a Gilson microfraction collector (Middleton, Wis.) by a fluid swivel mounted above the metabolic cage. Three hour bile samples were continuously collected for a minimum of 24 hours up to 48 hours. However, the efficiency calculations are based on the 24 hour iron excretion. The efficiency of each chelator was calculated on the basis of a 2:1 ligand-iron complex. The efficiencies in the rodent model were calculated by subtracting the iron excretion of control animals from the iron excretion of treated animals. This number was then divided by the theoretical output; the result is expressed as a percentage (Bergeron, R. J., et al., J. Med Chem. 42:95-108 (1999) the entire contents of which are incorporated herein by reference). The urine sample was taken at 24 hours and handled as previously described in Bergeron, R. J., et al., J. Med. Chem. 34:2072-2078 (1991), the entire contents of which are incorporated herein by reference.

[3] = Tissue and plasma concentrations upon subcutaneous administration to rats; conditions: rat
Description: Tissue Distribution of a Polyether-Substituted (S)-4′-Hydroxydesazadesferrithiocin Analogue [(S)-4′-(HO)-DADFT-PE] Upon Subcutaneous Administration to Rats
A measurement was made assessing (S)-4′-(HO)-DADFT-PE and (S)-4′-(HO)-DADFT tissue and plasma concentrations upon subcutaneous administration at times from 2-8 h post dosing. The rats were given this compound subcutaneously at 300 μmol/kg. The tissue and plasma level were obtained as described in Bergeron et al. J Med Chem. 48:821-831 (2005), the entire contents of which are incorporated herein by reference.

COCCOCCOCCOc1ccc(C2=N[C@@](C)(C(=O)O)CS2)c(O)c1 [(S)-4′-(HO)-DADFT-PE, (S)-4,5-Dihydro-2-[2-hydroxy-4-[2-[2-(2-methoxyethoxy)ethoxy]ethoxy]phenyl]-4-methyl-4-thiazolecarboxylic Acid]
Iron clearing efficiency compared with (S)-4′-(HO)-DADFT [1]: at least as efficient as (S)-4′-(HO)-DADFT | Efficiency (%) (iron clearing efficiency) ([2]; p.o.): 6.6 ± 1.9% | Efficiency (%) (iron clearing efficiency) ([2]; s.c.): 8.7 ± 2.8% | Iron clearing efficiency compared with parent drug (S)-4-(HO)-DADFT ([2]; same micromole per kilogram dose): work better than the parent drug | Tissue distribution (where most is found) ([3]; sc): found in the liver, kidney and pancreas | Brain concentration of administered compound ([3]; sc 300 μmol/kg, 2 h): 0.5 ± 0.9 nmol/g wet wt | Brain concentration of administered compound ([3]; sc 300 μmol/kg, 4 h): 0.0 ± 0.0 nmol/g wet wt | Brain concentration of administered compound ([3]; sc 300 μmol/kg, 6 h): 0.0 ± 0.0 nmol/g wet wt | Brain concentration of administered compound ([3]; sc 300 μmol/kg, 8 h): 0.0 ± 0.0 nmol/g wet wt | Heart concentration of administered compound ([3]; sc 300 μmol/kg, 2 h): 9.2 ± 2.6 nmol/g wet wt | Heart concentration of administered compound ([3]; sc 300 μmol/kg, 4 h): 5.3 ± 1.4 nmol/g wet wt | Heart concentration of administered compound ([3]; sc 300 μmol/kg, 6 h): 0.0 ± 0.0 nmol/g wet wt | Heart concentration of administered compound ([3]; sc 300 μmol/kg, 8 h): 2.0 ± 1.7 nmol/g wet wt | Kidney concentration of administered compound ([3]; sc 300 μmol/kg, kidney, 2 h): 41.1 ± 3.0 nmol/g wet wt | Kidney concentration of administered compound ([3]; sc 300 μmol/kg, kidney, 4 h): 33.7 ± 13.5 nmol/g wet wt | Kidney concentration of administered compound ([3]; sc 300 μmol/kg, kidney, 6 h): 13.7 ± 2.1 nmol/g wet wt | Kidney concentration of administered compound ([3]; sc 300 μmol/kg, kidney, 8 h): 7.4 ± 2.1 nmol/g wet wt | Liver concentration of administered compound ([3]; sc 300 μmol/kg, 2 h): 131.6 ± 32.2 nmol/g wet wt | Liver concentration of administered compound ([3]; sc 300 μmol/kg, 4 h): 66.9 ± 12.4 nmol/g wet wt | Liver concentration of administered compound ([3]; sc 300 μmol/kg, 6 h): 34.3 ± 1.5 nmol/g wet wt | Liver concentration of administered compound ([3]; sc 300 μmol/kg, 8 h): 25.4 ± 4.6 nmol/g wet wt | Pancreas concentration of administered compound ([3]; sc 300 μmol/kg, 2 h): 29.6 ± 24.8 nmol/g wet wt | Pancreas concentration of administered compound ([3]; sc 300 μmol/kg, 4 h): 12.6 ± 5.2 nmol/g wet wt | Pancreas concentration of administered compound ([3]; sc 300 μmol/kg, 6 h): 4.6 ± 1.6 nmol/g wet wt | Pancreas concentration of administered compound ([3]; sc 300 μmol/kg, 8 h): 2.7 ± 2.6 nmol/g wet wt | concentration at 2 h ([3]; sc 300 μmol/kg, plasma, 2 h, read-out: Plasma concentration of administered compound): 16.2 ± 4.2 µM | concentration at 4 h ([3]; sc 300 μmol/kg, plasma, 4 h, read-out: Plasma concentration of administered compound): 5.3 ± 2.6 µM | concentration at 6 h ([3]; sc 300 μmol/kg, plasma, 6 h, read-out: Plasma concentration of administered compound): 1 ± 1 µM | concentration at 8 h ([3]; sc 300 μmol/kg, plasma, 8 h, read-out: Plasma concentration of administered compound): 0 nM | Metabolism back to (S)-4-(HO)DADFT ([3]; sc, any tissue): very little metabolism | Kidney level compared with (S)-4-(HO)-DADFT ([3]; sc, kidney, any time point): much less of the PE in the kidney

From patent publication US9994535B2, “Desferrithiocin polyether analogues” (University of Florida Research Foundation, Inc., priority 2005, dated 2018)
